The values below come from article PMC5342262, “Synthesis, in vitro and in vivo evaluation of 3β-[^18F]fluorocholic acid for the detection of drug-induced cholestasis in mice” (PLoS ONE, 2017).

Values joined by “and” are separate entries in the source; they are usually repeats but may differ in a detail not shown here. Identical values can stand only once. “Also recorded” adds a separate entry of the source.

Data set [1] in a line: LogD of [^18F]FCA in octanol/PBS pH 7.4. It is filed as physicochemical. The conditions noted are these: octanol/PBS 50:50 v:v, n = 3. The method, then: 1 MBq of [^18F]FCA was used to spike an octanol/PBS 50:50 v:v pH 7.4 mixture in a test tube. After mixing and centrifugation (5 min; 1100 g), aliquots were taken from each layer and radioactivity was measured in a NaI (Tl) scintillation counter (Capintec; Ramsey, NJ, USA). The LogD value of [^18F]FCA was calculated as the logarithm of the ratio of counts in octanol and PBS.

The nature of data set [2]: Stability of [^18F]FCA in its PBS formulation. In kind it is physicochemical. The conditions noted are these: PBS pH 7.4 formulation; room temperature.
A short description of data set [3]: Dynamic PET of [^18F]FCA in wild-type FVB mice. It is filed as in vivo. The method, then:
Food and water was provided ad libitum. Animals were fasted overnight before the PET-scan.
A CT-scan was acquired for anatomical correlation.
In vivo characteristics of [^18F]FCA were investigated by a two hour dynamic PET scan with 30 MBq [^18F]FCA, injected intravenously (n = 3). Four and six hours post-injection, a 30 minute static scan was performed.
P-values ≤ 0.05 were considered significant.

The test system of data set [4] is hepatobiliary transport of [^18F]FCA. Briefly: Dynamic PET of [^18F]FCA in control, rifampicin and bosentan treated FVB-mice. The conditions noted are these: female, FVB, mouse, in vivo. The method, then:
Hepatobiliary transport of the tracer was evaluated in female wild-type FVB mice (5 weeks old, Charles River). The animals were housed in accordance with European Ethics Committee guidelines. The animal studies were approved by the Animal Experimental Ethical Committee of Ghent University (ECD 15/69). Food and water was provided ad libitum. Animals were fasted overnight before the PET-scan.
Mice were anesthetized with 1.5 v:v % isoflurane in 100% O2 for the duration of the experiment. An intravenous polyethylene line was placed in the lateral tail vein. The animals were placed in the small animal PET/CT-scanner (FLEX Triumph II small animal PET/CT-scanner; PET field of view: 7.5 cm axial; 1.3 mm spatial resolution; TriFoil Imaging) on a heated bed. A CT-scan was acquired for anatomical correlation.
The interaction of rifampicin (Sigma Aldrich) and bosentan (Activate Scientific) on in vivo [^18F]FCA transport was examined. FVB-mice were divided into 3 different groups (n = 3 per group): rifampicin, bosentan, and a control DMSO vehicle treated group). Both drugs were administered in doses of 100 mg/kg, intra-peritoneal in DMSO:PBS 70:30 v:v (rifampicin) or DMSO (bosentan) 1 hour before the start of the PET-scan. An additional dose (25 mg/kg for rifampicin in DMSO:PBS 40:60 v:v, 50 mg/kg for bosentan in DMSO) was co-injected intravenously with the tracer.
For each scan, 10 MBq of [^18F]FCA was administered intravenously and a 1 hour dynamic scan was started. Immediately after the dynamic scan, 18 MBq [^18F]FDG was injected intravenously. After 20 minutes, a 20 minutes static scan was taken.
PET-data were obtained in list-mode and were iteratively reconstructed (50 iterations) in frames of 15 seconds for the first 10 minutes, followed by 50 frames of 1 minute. ROI’s were drawn manually over liver, gallbladder and intestines using PMod software. A ROI was drawn in the left ventricle on the static [^18F]FDG scan to obtain an image-derived arterial blood input curve. The uptake of [^18F]FCA in arterial blood, liver, gallbladder and intestines was expressed as a % injected dose (% ID) and normalized for the weight of a 20 gram mouse. Time-activity curves (TAC’s) were generated using these values.
AUC, maximum % ID, and time to peak values were determined for the TAC’s with Graphpad Prism v3.00. Differences between 2 groups were determined with the non-parametric Mann-Whitney U test. P-values ≤ 0.05 were considered significant.

A short description of data set [5]: Stability of [^18F]FCA in mouse serum.
Data set [6] is described as follows: Stability/metabolization of [^18F]FCA with primary mouse hepatocytes. The following applies: mouse.
Data set [7] concerns primary mouse hepatocytes. Described as above. The conditions noted are these: 37°C.

Usually logD stands for the decadic logarithm of the distribution of all forms, ionised or not, between an organic phase and buffer at a given pH. In data set [1], `C[C@H](CCC(=O)O)[C@H]1CC[C@H]2[C@@H]3[C@H](O)C[C@@H]4C[C@@H]([18F])CC[C@]4(C)[C@H]3C[C@H](O)[C@]12C` [[^18F]FCA, 3β-[^18F]Fluorocholic Acid] had a logD of 1.19 ± 0.1. In addition, in data set [2], the “time stable in PBS formulation” value is reported as “at least 6 hours”. Further, in data set [3] (IV, n = 3), the “AUC gallbladder & intestines % injected dose” value is on record as 4105 ± 36 % ID.min; the “Time to peak liver” value was 4.5 min and 4.5 ± 0.5 min. The “Max % injected dose liver” value in data set [3] (IV, n = 3, normalized for a 20 g mouse) is 71.8 % ID and 71.8 ± 1.2 % ID. In data set [3] (PET/CT images up to 6 hours post-injection), the “uptake in urinary bladder or other organs” value is “no uptake in other organs than liver, gallbladder and intestines”. The “radioactivity in gallbladder and intestines” value in data set [3] (after 1 hour) is 93.3 ± 6.0 % ID and 93.3 % ID. Besides, in data set [4], the “AUC arterial blood % injected dose” value worked out at 1.909 ± 0.572 % ID.min, the “AUC gallbladder & intestines % injected dose” value is reported as 3718 ± 182 % ID.min and the “Time to peak liver” value was 5.5 ± 1.1 min. Further, the “Max % injected dose liver” value in data set [4] (iv) is 71.2 ± 3.5 % ID. Moreover, the “time stable in presence of mouse serum” value in data set [5] (37°C) is “at least 1 hour”. For the same compound, the “degradation or metabolization products in mouse serum” value in data set [5] (37°C, 5, 10, 30 and 60 minutes) is on record as “No degradation or metabolization products”. In data set [5] (mouse), this compound yielded a recovery at 5 min, 37 MBq/mL of 100%; a recovery at 10 min, 37 MBq/mL of 100%; a recovery at 30 min, 37 MBq/mL of 100%; a recovery at 60 min, 37 MBq/mL of 100%. In data set [6], this compound had a recovery at 5 min, 37 MBq/mL of 100%; a recovery at 10 min, 37 MBq/mL of 100%; a recovery at 30 min, 37 MBq/mL of 100%; a recovery at 60 min, 37 MBq/mL of 100%. Moreover, in data set [7], the “time stable in presence of primary mouse hepatocytes” value is reported as “at least 1 hour”. Moreover, the “degradation or metabolization products with primary mouse hepatocytes” value in data set [7] (5, 10, 30 and 60 minutes) is “metabolically stable; also recorded: No degradation or metabolization products”.
